Assay results from patent US10239883B2, “4-imidazopyridazin-1-yl-benzamides as BTK inhibitors” (Merck Sharp & Dohme B.V., priority 2011, dated 2019).

Tests used:
Lck enzyme = Lck enzyme (Homo sapiens (Human), UniProt P06239); assay: Lck enzyme activity, IMAP fluorescence polarization assay; settings: 60 min pre-incubation, 6 μM ATP, bin bound in μM
Lyn enzyme = Lyn enzyme (Homo sapiens (Human), UniProt P07948); assay: Lyn enzyme activity, IMAP fluorescence polarization assay; settings: for EC50 Lyn activity values: IMAP, 60 min pre-incubation, 2 μM ATP, bin bound in μM
Btk enzyme (His-Btk) = Btk enzyme (His-Btk) (Homo sapiens (Human), UniProt Q06187); assay: Btk enzyme activity, IMAP fluorescence polarization assay; settings: 60 min pre-incubation, 5 μM ATP
Sequence of Btk enzyme (His-Btk) (Q06187 whole entry): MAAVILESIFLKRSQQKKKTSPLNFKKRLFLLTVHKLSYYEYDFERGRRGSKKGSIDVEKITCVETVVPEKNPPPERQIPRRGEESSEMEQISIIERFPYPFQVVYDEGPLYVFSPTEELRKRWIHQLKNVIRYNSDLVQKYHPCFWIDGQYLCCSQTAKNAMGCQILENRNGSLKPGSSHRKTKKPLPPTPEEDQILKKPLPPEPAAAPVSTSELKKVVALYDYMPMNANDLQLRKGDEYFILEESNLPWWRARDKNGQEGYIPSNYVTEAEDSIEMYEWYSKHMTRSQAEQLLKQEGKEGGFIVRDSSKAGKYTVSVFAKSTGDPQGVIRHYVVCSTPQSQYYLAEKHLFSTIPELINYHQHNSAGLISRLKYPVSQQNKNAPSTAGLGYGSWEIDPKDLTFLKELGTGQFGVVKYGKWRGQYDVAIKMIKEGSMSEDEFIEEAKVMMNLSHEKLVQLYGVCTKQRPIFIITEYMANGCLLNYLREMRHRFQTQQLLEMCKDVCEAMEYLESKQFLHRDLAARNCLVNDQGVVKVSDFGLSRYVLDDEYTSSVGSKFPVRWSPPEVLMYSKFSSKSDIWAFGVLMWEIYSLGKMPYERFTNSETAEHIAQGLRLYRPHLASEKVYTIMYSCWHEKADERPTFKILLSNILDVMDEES

Sequence of Lyn enzyme (P07948 whole entry): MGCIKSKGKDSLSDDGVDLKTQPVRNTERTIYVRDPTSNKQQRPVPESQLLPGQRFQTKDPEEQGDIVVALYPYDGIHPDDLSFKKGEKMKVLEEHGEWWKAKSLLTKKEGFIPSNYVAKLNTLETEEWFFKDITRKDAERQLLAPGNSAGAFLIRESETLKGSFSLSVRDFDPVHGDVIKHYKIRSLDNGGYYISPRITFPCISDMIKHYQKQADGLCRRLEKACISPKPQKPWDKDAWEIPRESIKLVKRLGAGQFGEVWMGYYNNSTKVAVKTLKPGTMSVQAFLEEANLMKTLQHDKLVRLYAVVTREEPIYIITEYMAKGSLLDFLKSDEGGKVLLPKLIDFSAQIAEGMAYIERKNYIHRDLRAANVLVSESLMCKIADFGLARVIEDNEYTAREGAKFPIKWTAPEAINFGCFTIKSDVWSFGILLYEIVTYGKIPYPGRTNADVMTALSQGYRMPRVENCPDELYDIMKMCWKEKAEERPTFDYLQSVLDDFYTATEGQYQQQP
Sequence of Lck enzyme (P06239 whole entry): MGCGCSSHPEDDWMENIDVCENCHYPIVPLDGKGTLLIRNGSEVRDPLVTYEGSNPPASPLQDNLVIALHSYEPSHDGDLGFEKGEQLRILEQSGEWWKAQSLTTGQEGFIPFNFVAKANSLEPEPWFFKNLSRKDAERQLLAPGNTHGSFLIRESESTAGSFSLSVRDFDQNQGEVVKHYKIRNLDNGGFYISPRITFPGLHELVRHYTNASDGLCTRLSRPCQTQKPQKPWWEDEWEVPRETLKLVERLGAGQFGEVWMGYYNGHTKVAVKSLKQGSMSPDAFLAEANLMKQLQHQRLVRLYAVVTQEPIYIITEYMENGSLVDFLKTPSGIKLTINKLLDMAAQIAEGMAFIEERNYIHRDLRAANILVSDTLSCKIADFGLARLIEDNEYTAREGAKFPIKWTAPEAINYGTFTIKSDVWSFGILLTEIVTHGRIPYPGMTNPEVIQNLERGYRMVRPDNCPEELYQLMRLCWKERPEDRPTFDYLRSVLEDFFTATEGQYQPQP

EC50 Lck activity values (Lck enzyme) [µM]	EC50 Lyn activity values (Lyn enzyme) [µM]	EC50 Btk activity values (Btk enzyme (His-Btk); bin bound in μM) [µM]	EC50 Btk activity values (Btk enzyme (His-Btk); bin bound in nM) [µM]	EC50 (Lyn enzyme) [nM]	Compound
<1	<1				C=CC(=O)N1CCC[C@H]1c1nc(-c2ccc(C(=O)Nc3cc(C)ccn3)cc2)c2c(N)nccn12 [Example 124, (S)-4-(3-(1-acryloylpyrrolidin-2-yl)-8-aminoimidazo[1,5-a]pyrazin-1-yl)-N-(4-methylpyridin-2-yl)benzamide]
<1		<1			Nc1nccn2c([C@@H]3CCCN3C(=O)/C=C/c3ccccc3)nc(-c3ccc(C(=O)Nc4ccccn4)cc3)c12 [Example 104, (S,E)-4-(8-amino-3-(1-cinnamoylpyrrolidin-2-yl)imidazo[1,5-a]pyrazin-1-yl)-N-(pyridin-2-yl)benzamide]
<1	<1				C=CC(=O)N1CCC[C@H]1c1nc(-c2ccc(C(=O)Nc3cc(CCC)ccn3)cc2)c2c(N)nccn12 [Example 125, (S)-4-(3-(1-acryloylpyrrolidin-2-yl)-8-aminoimidazo[1,5-a]pyrazin-1-yl)-N-(4-propylpyridin-2-yl)benzamide]
<1	<1				C=CC(=O)N1CCC[C@H]1c1nc(-c2ccc(C(=O)Nc3cc(-c4ccccc4)ccn3)cc2)c2c(N)nccn12 [Example 133, (S)-4-(3-(1-acryloylpyrrolidin-2-yl)-8-aminoimidazo[1,5-a]pyrazin-1-yl)-N-(4-phenylpyridin-2-yl)benzamide]
<1	<1				C=CC(=O)N1CCC[C@H]1c1nc(-c2ccc(C(=O)Nc3cc(CC)ccn3)cc2)c2c(N)nccn12 [Example 126, (S)-4-(3-(1-acryloylpyrrolidin-2-yl)-8-aminoimidazo[1,5-a]pyrazin-1-yl)-N-(4-ethylpyridin-2-yl)benzamide]
<1					C=CC(=O)N1CCC[C@H]1c1nc(-c2ccc(C(=O)Nc3cc(C#N)ccn3)cc2)c2c(N)nccn12 [Example 122, (S)-4-(3-(1-acryloylpyrrolidin-2-yl)-8-aminoimidazo[1,5-a]pyrazin-1-yl)-N-(4-cyanopyridin-2-yl)benzamide]
<1					CC#CC(=O)N1CCC[C@H]1c1nc(-c2ccc(C(=O)Nc3cc(-c4ccccc4)ccn3)cc2)c2c(N)nccn12 [Example 132, (S)-4-(8-amino-3-(1-but-2-ynoylpyrrolidin-2-yl)imidazo[1,5-a]pyrazin-1-yl)-N-(4-phenylpyridin-2-yl)benzamide]
<1					CC#CC(=O)N1CCCC[C@H]1c1nc(-c2ccc(C(=O)Nc3cc(CCC)ccn3)cc2)c2c(N)nccn12 [Example 64, (S)-4-(8-amino-3-(1-but-2-ynoylpiperidin-2-yl)imidazo[1,5-a]pyrazin-1-yl)-N-(4-propylpyridin-2-yl)benzamide]
<1	<1		<0.1	100 to 1000	CC#CC(=O)N1CCC[C@H]1c1nc(-c2ccc(C(=O)Nc3nccs3)cc2)c2c(N)nccn12 [Example 60, (S)-4-(8-amino-3-(1-but-2-ynoylpyrrolidin-2-yl)imidazo[1,5-a]pyrazin-1-yl)-N-(thiazol-2-yl)benzamide]
<1					C=CC(=O)N1CCC[C@H]1c1nc(-c2ccc(C(=O)Nc3cc(C(F)(F)F)ccn3)cc2)c2c(N)nccn12 [Example 62, (S)-4-(3-(1-acryloylpyrrolidin-2-yl)-8-aminoimidazo[1,5-a]pyrazin-1-yl)-N-(4-(trifluoromethyl)pyridin-2-yl)benzamide]
